The record followed here is PubChem BioAssay (NCI).

Common to all, as to assay: NCI-60 cell line screen, 48 h
Assay [1] deals with ACHN renal.
In assay [2] the test system is NCI-H460 lung.
The subject of assay [3] is HOP-92 NSCLC.
The test system of assay [4] is HT29 colon.
Assay [5] deals with UACC-62 melanoma.
Assay [6] concerns U251 CNS.
Assay [7] concerns A498 renal.
The test system of assay [8] is NCI-H522 lung.
Assay [9] concerns HL-60(TB) leukemia.

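Dose response: 5 concentrations. Exposure: 48 h. Format: 96-well plates. Endpoint: linear interpolation; highest concentration if not reached. TGI is the concentration that stops growth completely.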

Consider `N#C/C(=C\c1cc(O)cc(O)c1)C(N)=O`, for which the TGI in [1], in assay [2], in assay [3], in [4], in [5] and in [6] was over 100 µM throughout. The TGI is over 100 µM in assay [7] and 66.2 µM in assay [8].

As to `O=C(CCC(=O)Nc1ccc(Cl)c(Cl)c1)Cc1nc2ccccc2o1`, the TGI in [1], in assay [2], in assay [9], in assay [3], in assay [4] and in assay [5] was over 100 µM each time. Also, the TGI in assay [6], in assay [7] and in [8] was over 100 µM each time.

Turning to `CCC[C@H]1O[C@@H]2CC(=O)O[C@@H]2C2=C1C(=O)C=CC2=O`, the TGI is 25.7 µM in [1]; over 100 µM in [2]; 37.7 µM in [9]; 8.31 µM in assay [3]; 43.3 µM in [4]; 32.3 µM in [5]. Moreover, the TGI in assay [6] was over 53.7 µM; in assay [7] it was over 70.3 µM; in assay [8] it was 4.68 µM.

Regarding `O=C(C(=O)c1cc2ccccc2[nH]1)c1cc2ccccc2[nH]1`, the TGI in [1], in assay [2], in assay [9], in assay [3], in assay [4] and in [5] was over 347 µM throughout. Moreover, the values for the TGI in [6], in [7] and in [8] were over 347 µM, over 347 µM and 114 µM, respectively.

Take `CC1(C)OC2C(CCP(=O)(O)O)OC(c3nc(C(N)=O)cs3)C2O1` (stereo not given): the TGI in [1], in [2], in assay [3], in assay [4], in assay [5] and in assay [6] was over 100 µM throughout. For the same molecule, the TGI in [7] and in assay [8] was over 100 µM in each case.

On to `NC(=O)NNC(=O)CCn1[nH]c(=O)c(Cl)c(Cl)c1=O`, for which the TGI in assay [1], in assay [2], in [9], in [3], in assay [4] and in [5] was over 100 µM in each case. Besides, the TGI in [6], in assay [7] and in [8] was over 100 µM each time.

In the case of `C=CSCCC(N)C(=O)O` (stereo not given), the TGI in [1], in assay [2], in assay [9], in [3], in assay [4] and in [5] was over 100 µM each time. The TGI in [6], in assay [7] and in assay [8] was over 100 µM each time.

As to `CCOC(OC(C)=O)[C@@H]1C=C[C@H](C)N(c2ccc([N+](=O)[O-])cc2)O1` (stereo not given in full), the TGI came to 13 µM in assay [1]; 34.2 µM in [2]; 4.79 µM in assay [9]; 16.2 µM in assay [3]; 11.4 µM in [4]; 7.55 µM in [5]. For the same molecule, the TGI in [6] was 9 µM; in [7], over 59.4 µM; in assay [8], 8.97 µM.

`COC1CCC(OS(C)(=O)=O)C(CO)O1` (stereo not given): the TGI in assay [1], in assay [2], in assay [9], in assay [3], in [4] and in [5] was over 100 µM in each case. Besides, the TGI in [6] and in assay [8] was over 100 µM each time.

Regarding `CCN(CC)CCCNc1nccc2c(C)c3c(cc12)c1cnccc1n3C`, the TGI in [1] was 2.41 µM; in [2], 0.14 µM; in assay [4] it was 1.02 µM; in assay [5], 2.25 µM; in [6] it was 1.77 µM; in [7] it was 2.61 µM.

Consider `COc1ccc(Cc2c3cc(O)c(=O)cc-3ccn2C)cc1`, for which the TGI was over 100 µM in assay [1]; over 100 µM in assay [2]; over 100 µM in assay [9]; over 100 µM in assay [3]; over 100 µM in assay [4]; 61 µM in assay [5]. The TGI in assay [6], in assay [7] and in assay [8] was over 100 µM each time.

For `NNC(=O)C(=O)N/N=C(\CCCC(=O)Nc1ccc(Cl)cc1)CC(=O)c1ccc(F)cc1`, the TGI is over 100 µM in assay [1]; over 100 µM in assay [2]; over 100 µM in assay [9]; over 100 µM in [3]; over 100 µM in [4]; 78.5 µM in [5]. The TGI in assay [6] was over 100 µM; in assay [7], 88.6 µM.

As for `C=C(CCCCC)CN1CCCC1C(C)=O` (stereo not given), the TGI in assay [1] is over 85.4 µM; in assay [2], over 85.3 µM; in assay [9] it was 19.7 µM; in assay [3] it was 63.8 µM; in assay [4], over 100 µM; in [5] it was over 100 µM. Besides, the TGI was over 100 µM in assay [6], over 93.5 µM in assay [7] and 34.7 µM in assay [8].

Take `C=CCNC(=O)NCCCCC(NC(C)=O)C(=O)NCc1ccccc1` (stereo not given): the TGI in assay [1], in assay [2], in assay [9], in assay [3], in assay [4] and in [5] was over 100 µM throughout. For the same molecule, the TGI in assay [6], in assay [7] and in [8] was over 100 µM in each case.

Consider `CC(C)(C)C1=CC(=C(P(=O)(O)O)P(=O)(O)O)C=C(C(C)(C)C)C1=O`, for which the TGI in assay [1], in [2], in assay [9], in assay [3], in [4] and in assay [5] was over 50 µM in each case. The TGI in assay [7] and in assay [8] was over 50 µM throughout.

Consider `COC(=O)c1cc2c(=O)n(C)c3ccccc3n2c1C(=O)OC`, for which the TGI in [1] was over 100 µM; in assay [2], over 100 µM; in [3], over 100 µM; in assay [4] it was over 100 µM; in assay [5], over 100 µM; in assay [6], 58.8 µM. Also, the TGI in assay [7] is over 100 µM; in assay [8], 73.7 µM.
